# System: kynurenine production in HeLa cells
# Assay: Inhibition of kynurenine production in HeLa cells
# Format: cell-based, human
# Conditions: HeLa cells, human IFN-γ 50 ng/mL, 48 h, kynurenine read at 480 nm; read-out: IC50
# Protocol: The effect of compounds described herein on the inhibition of kynurenine production in HeLa cells (derived from human cervical cancer) was determined. HeLa cells were seeded into a 96-well culture plate at a density of 5×10^3 per well in RPMI1640/phenol red free media (from GIBCO) with 2 mM L-glutamine and 10% fetal bovine serum (FBS, from GIBCO) and grown overnight in a 37° C. incubator with 5% CO2. Twenty-four hours later, human IFN-γ (from GIBCO) (final concentration 50 ng/mL) and test compound solutions (serially diluted to different wells) were added to each well with a final volume of 200 uL per well. Forty-eight hours after incubation with compounds, 140 uL supernatant was taken from each well and was transferred to a new 96-well plate. Ten microliters of 6.1 N trichloroacetic acid were added into each well, mixed and incubated at 50° C. for 30 minutes. The reaction mixture was then centrifuged for 10 minutes at 2500 rpm and 100 uL of the supernatant per well was transferred to another 96 well plate and mixed with 100 uL of 2% (w/v) p-dimethylaminobenzaldehyde in acetic acid. The yellow color derived from kynurenine was measured at 480 nm using a SPECTRAmax i3 reader. Each compound concentration was done in triplicates and compound IC50 value was calculated using nonlinear regression using Graphpad Prism 5.0.
# The inhibitory activity of representative compounds described herein, compared with another IDO inhibitor, such as INCB-24360, Controls 1 and 2 are shown in Table 2.
row,IC50 [nM],Structure (SMILES)
1,12.7,"CCC(C(=O)O)c1ccc(N(CC(C)C)CC(C)C)c(NC(=O)Nc2cc(C)no2)c1 (single isomer, unassigned) [Compound 59A]"
2,0.1,"CCC(C(=O)O)c1ccc(N(CC(C)C)CC(C)C)c(NC(=O)Nc2cc(C)no2)c1 (single isomer, unassigned) [Compound 59B]"
3,33,"CCC(C(=O)O)c1ccc(N(CC(C)C)CC(C)C)c(Nc2ccc(S(C)(=O)=O)cc2)c1 (single isomer, unassigned) [Compound 60A]"
4,2.8,"CCC(C(=O)O)c1ccc(N(CC(C)C)CC(C)C)c(Nc2ccc(S(C)(=O)=O)cc2)c1 (single isomer, unassigned) [Compound 60B]"
5,1.4,"CCC(C(=O)O)c1ccc(N(CC(C)C)C2CCCCC2)c(NC(=O)Nc2ccc(F)cc2F)c1 (single isomer, unassigned) [Compound 62A]"
6,0.2,"CCC(C(=O)O)c1ccc(N(CC(C)C)C2CCCCC2)c(NC(=O)Nc2ccc(F)cc2F)c1 (single isomer, unassigned) [Compound 62B]"
7,4.2,"CCC(C(=O)O)c1ccc(N(CC(C)C)C2CCCCC2)c(NC(=O)Nc2cncnc2)c1 (single isomer, unassigned) [Compound 64A]"
8,0.2,"CCC(C(=O)O)c1ccc(N(CC(C)C)C2CCCCC2)c(NC(=O)Nc2cncnc2)c1 (single isomer, unassigned) [Compound 64B]"
9,0.8,"CCC(C(=O)O)c1ccc(N(CC(C)C)C2CCOCC2)c(NC(=O)Nc2ccc(F)cc2F)c1 (single isomer, unassigned) [Compound 65A]"
10,12,"CCC(C(=O)O)c1ccc(N(CC(C)C)C2CCOCC2)c(NC(=O)Nc2ccc(F)cc2F)c1 (single isomer, unassigned) [Compound 65B]"
11,0.3,"CCC(C(=O)O)c1ccc(N(CC(C)C)C2CCOCC2)c(Nc2ccc3c(c2)OC(F)(F)O3)c1 (single isomer, unassigned) [Compound 71A]"
12,0.9,"CCC(C(=O)O)c1ccc(N(CC(C)C)C2CCOCC2)c(Nc2ccc3c(c2)OC(F)(F)O3)c1 (single isomer, unassigned) [Compound 71B]"
13,61.5,CC(C)CN(CC(C)(C)O)c1ccc(C2(C(=O)O)CCC2)cc1NC(=O)Nc1ccc(F)cc1F [Compound 23]
14,0.7,CCC(C(=O)O)c1ccc(N(CC(C)C)C2CCOCC2)c(Nc2ccc(Cl)cc2)c1 (stereo not drawn) [Compound 68B]

# Same assay, conditions: Homo sapiens, HeLa, 48 h
row,Structure (SMILES),IC50 [nM]
1,CC(C)CN(c1ccc(C2(C(=O)O)CCC2)cc1NC(=O)Nc1ccc(F)cc1F)C1CCN(C)CC1 [Compound 28],> 316

# Same assay, conditions: Homo sapiens, HeLa, 48 h, HeLa cells, human IFN-γ 50 ng/mL, kynurenine read at 480 nm, read-out: IC50
row,Structure (SMILES),IC50 [nM]
1,"CC(C)CN(CC(C)C)c1ccc(CC(=O)O)cc1NC(=O)Nc1ccc(F)cc1F [Compound 1, 2-[4-[bis(2-methylpropyl)amino]-3-[[(2,4-difluorophenyl)carbamoyl]amino]phenyl]acetic acid]",130
2,CC(C)CN(CC(C)C)c1ccc(C(C)C(=O)O)cc1NC(=O)Nc1ccc(F)cc1F (stereo not drawn) [Compound 2],9.1
3,CC(C)CN(CC(C)C)c1ccc(C(C)(C)C(=O)O)cc1NC(=O)Nc1ccc(F)cc1F [Compound 4],14.9
4,CC(C)CN(CC(C)C)c1c(F)cc(Cc2nnn[nH]2)cc1NC(=O)Nc1ccc(F)cc1F [Compound 6],8.5
5,"CC(C)CN(CC(C)C)c1ccc(C2(C(=O)O)CC2)cc1NC(=O)Nc1ccc(F)cc1F [Compound 7, 1-[4-[bis(2-methylpropyl)amino]-3-[[(2,4-difluorophenyl)carbamoyl]amino]phenyl]cyclopropane-1-carboxylic acid]",6.3
6,"CC(C)CN(CC(C)C)c1ccc(C2(C(=O)O)CCOCC2)cc1NC(=O)Nc1ccc(F)cc1F [Compound 8, 4-[4-[bis(2-methylpropyl)amino]-3-[[(2,4-difluorophenyl)carbamoyl]amino]phenyl]oxane-4-carboxylic acid]",47
7,"CC(C)CN(CC(C)C)c1ccc(C2(c3nnn[nH]3)CCCC2)cc1NC(=O)Nc1ccc(F)cc1F [Compound 10, 3-[2-[bis(2-methylpropyl)amino]-5-[1-(1H-1,2,3,4-tetrazol-5-yl)cyclopentyl]phenyl]-1-(2,4-difluorophenyl)urea]",0.9
8,CC(C)CN(c1ccc(C2(C(=O)O)CCCC2)cc1NC(=O)Nc1ccc(F)cc1F)C1CCCCC1 [Compound 11],0.9
9,CC(C)CN(c1ccc(C2(C(=O)O)CCCC2)cc1NC(=O)Nc1ccc(F)cc1F)C1CCC(F)(F)CC1 [Compound 12],0.5
10,O=C(Nc1ccc(F)cc1F)Nc1cc(C2(C(=O)O)CCCC2)ccc1N(CCC(F)(F)F)Cc1ccc(OC(F)(F)F)cc1 [Compound 13],0.6
11,Cc1ccc(NC(=O)Nc2cc(C3(C(=O)O)CCCC3)ccc2N(CCC(F)(F)F)Cc2ccc(OC(F)(F)F)cc2)cc1 [Compound 14],0.5
12,Cc1cc(NC(=O)Nc2cc(C3(C(=O)O)CCCC3)ccc2N(CC(C)C)C2CCOCC2)on1 [Compound 15],1.4
13,Cc1cc(NC(=O)Nc2cc(C3(C(=O)O)CCC3)ccc2N(CC(C)C)CC(C)C)on1 [Compound 17],0.8
14,CC(C)CN(CC(C)C)c1ccc(C2(C(=O)O)CCC2)cc1NC(=O)Nc1cncnc1 [Compound 18],6.6
15,CC(C)CN(CC(C)C)c1ccc(C2(c3nnn[nH]3)CCC2)cc1NC(=O)Nc1ccc(F)cc1F [Compound 19],1
16,CCN(c1ccc(C2(C(=O)O)CCC2)cc1NC(=O)Nc1ccc(F)cc1F)C1CCCCC1 [Compound 20],0.5
17,CC(C)CN(c1ccc(C2(C(=O)O)CCC2)cc1NC(=O)Nc1ccc(F)cc1F)C1CCCCC1 [Compound 21],0.6
18,COCCN(c1ccc(C2(C(=O)O)CCC2)cc1NC(=O)Nc1ccc(F)cc1F)C1CCCCC1 [Compound 22],2.1
19,CCN(c1ccc(C2(C(=O)O)CCC2)cc1NC(=O)Nc1ccc(F)cc1F)C1CCOCC1 [Compound 24],2.2
20,Cc1cc(NC(=O)Nc2cc(C3(C(=O)O)CCC3)ccc2N(CC(C)C)C2CCOCC2)on1 [Compound 27],5.7
21,CC(C)CN(CC(C)C)c1ccc(C2(C(=O)O)CC(F)(F)C2)cc1NC(=O)Nc1ccc(F)cc1F [Compound 29],4

row,Structure (SMILES),IC50 [nM]
1,CC(C)CN(CC(C)C)c1ccc(C2(c3nnn[nH]3)CC(F)(F)C2)cc1NC(=O)Nc1ccc(F)cc1F [Compound 30],1
2,CC(C)CN(CC(C)C)c1ccc(OCC(=O)O)cc1NC(=O)Nc1ccc(F)cc1F [Compound 31],11.8
3,CC(C)CN(CC(C)C)c1ccc(OC(C)(C)C(=O)O)cc1NC(=O)Nc1ccc(F)cc1F [Compound 32],0.8
4,CC(C)CN(CC(C)C)c1ccc(OC(C)(C)C(=O)O)cc1NC(=O)Nc1cncnc1 [Compound 33],48
5,Cc1cc(NC(=O)Nc2cc(OC(C)(C)C(=O)O)ccc2N(CC(C)C)CC(C)C)on1 [Compound 34],7.7
6,CC(C)CN(c1ccc(OC(C)(C)C(=O)O)cc1NC(=O)Nc1ccc(F)cc1F)C1CCCCC1 [Compound 35],1.9
7,CC(C)CN(CC(C)C)c1ccc(SCC(=O)O)cc1NC(=O)Nc1ccc(F)cc1F [Compound 36],2.8
8,CC(C)CN(CC(C)C)c1ccc(SC(C)(C)C(=O)O)cc1NC(=O)Nc1ccc(F)cc1F [Compound 37],19.9
9,CC(C)CN(c1ccc(SC(C)(C)C(=O)O)cc1NC(=O)Nc1ccc(F)cc1F)C1CCCCC1 [Compound 41],6.4
10,CC(C)CN(c1ccc(SC(C)(C)C(=O)O)cc1NC(=O)Nc1ccc(F)cc1F)C1CCOCC1 [Compound 43],134
11,COCCN(c1ccc(SC(C)(C)C(=O)O)cc1NC(=O)Nc1ccc(F)cc1F)C1CCCCC1 [Compound 45],78
12,CC(C)CN(CC(C)C)c1ccc(C2(C(=O)O)CCCC2)cc1Nc1nc2ccccc2[nH]1 [Compound 47],5.6
13,CC(C)CN(CC(C)C)c1ccc(C2(C(=O)O)CCCC2)cc1Nc1ncccn1 [Compound 49],> 316
14,CC(C)CN(c1ccc(C2(C(=O)O)CCC2)cc1NC(=O)C(C)C)C1CCOCC1 [Compound 50],> 316
15,CC(C)CN(CC(C)C)c1ccc(C2(C(=O)O)CCCC2)cc1Nc1ccc(Cl)cc1 [Compound 51],2.3
16,CC(C)CN(c1ccc(C2(C(=O)O)CCC2)cc1Nc1ccc(Cl)cc1)C1CCCCC1 [Compound 52],0.3
17,CCOc1ccc(Nc2cc(C3(C(=O)O)CCC3)ccc2N(CC(C)C)C2CCCCC2)cc1 [Compound 53],1
18,CC(C)CN(c1ccc(C2(C(=O)O)CCC2)cc1Nc1cncnc1)C1CCCCC1 [Compound 54],0.6
19,CCOc1ncc(Nc2cc(C3(C(=O)O)CCC3)ccc2N(CC(C)C)C2CCCCC2)cn1 [Compound 55],0.3
20,CC(C)CN(c1ccc(C2(C(=O)O)CCC2)cc1Nc1ccc(C#N)cc1)C1CCCCC1 [Compound 56],0.2
21,CC(C)CN(c1ccc(C2(C(=O)O)CCC2)cc1Nc1ccc(Cl)cc1)C1CCOCC1 [Compound 57],0.2

# More lines, now with the values ahead:
row,IC50 [nM],Structure (SMILES)
1,0.3,CCC(C(=O)O)c1ccc(N(CC(C)C)CC(C)C)c(Nc2ccc(C#N)cc2)c1 (stereo not drawn) [Compound 61A]
2,2.5,CCC(C(=O)O)c1ccc(N(CC(C)C)C2CCCCC2)c(NC(=O)Nc2cc(C)no2)c1 (stereo not drawn) [Compound 63A]
3,0.4,CCC(C(=O)O)c1ccc(N(CC(C)C)C2CCOCC2)c(Nc2ccc(Cl)cc2)c1 (stereo not drawn) [Compound 68A]

# Source: patent US11969425B2, “Inhibitor of indoleamine-2,3-dioxygenase (IDO)” (InventisBio LLC, priority 2016, dated 2024)
